Article PMC12102759 (Protein Science : A Publication of the Protein Society, 2025)
Like-named read-outs stand apart in the source and are kept apart here.

Tested on: PABPC1 PABC
Assay type: binding, human
Conditions: DMS-BM library, bait PABPC1 PABC, row aa = residue at this position; for DMS-derived PSSM value, position F9 / DMS-derived PSSM value, position F16 / DMS-derived PSSM value, position F11 / DMS-derived PSSM value (averaged), position F9 / DMS-derived PSSM value (averaged), position F14: F = wild type; for DMS-derived PSSM value (averaged), position T1 / DMS-derived PSSM value, position T1: T = wild type; for DMS-derived PSSM value, position R12: R = wild type
[1] = prey ATXN2, peptide TLNPNAKEFNPRSFSQ, S = wild type
[2] = prey ATXN2, peptide TLNPNAKEFNPRSFSQ, A = wild type
[3] = prey ATXN2, peptide KSTLNPNAKEFNPRSF, S = wild type
[4] = prey ATXN2, peptide TLNPNAKEFNPRSFSQ
[5] = prey ATXN2, peptide TLNPNAKEFNPRSFSQ, P = wild type
[6] = prey ATXN2, peptide KSTLNPNAKEFNPRSF
[7] = prey ATXN2, TLNPNAKEFNPRSF(averaged) over the two overlapping peptides, L = wild type
[8] = prey ATXN2, TLNPNAKEFNPRSF(averaged) over the two overlapping peptides, N = wild type
[9] = prey ATXN2, peptide KSTLNPNAKEFNPRSF, K = wild type
[10] = prey ATXN2, TLNPNAKEFNPRSF(averaged) over the two overlapping peptides
[11] = prey ATXN2, peptide KSTLNPNAKEFNPRSF, P = wild type
[12] = prey ATXN2, TLNPNAKEFNPRSF(averaged) over the two overlapping peptides, S = wild type
[13] = prey ATXN2, TLNPNAKEFNPRSF(averaged) over the two overlapping peptides, P = wild type
[14] = prey ATXN2, peptide KSTLNPNAKEFNPRSF, N = wild type
[15] = prey ATXN2, peptide TLNPNAKEFNPRSFSQ, N = wild type
[16] = prey ATXN2, peptide KSTLNPNAKEFNPRSF, A = wild type

In the case of “TLNPNAKEFNPRSFSQ S13G (TLNPNAKEFNPRGFSQ)”, the “DMS-derived PSSM value, position S13” value [1] was 0.1675.

With TLNPNAKEFNPRSFSQ A6K (TLNPNKKEFNPRSFSQ) the “DMS-derived PSSM value, position A6” value [2] was 0.

With “KSTLNPNAKEFNPRSF S15V (KSTLNPNAKEFNPRVF)” the “DMS-derived PSSM value, position S15” value [3] was 0.09383.

In the case of TLNPNAKEFNPRSFSQ F9D (TLNPNAKEDNPRSFSQ), the “DMS-derived PSSM value, position F9” value [4] was 0.002637.

In the case of TLNPNAKEFNPRSFSQ P4D (TLNDNAKEFNPRSFSQ), the “DMS-derived PSSM value, position P4” value [5] was 0.

“KSTLNPNAKEFNPRSF F16M (KSTLNPNAKEFNPRSM)” was tested, and the “DMS-derived PSSM value, position F16” value [6] was 0.02916.

“TLNPNAKEFNPRSF(averaged) L2A (TANPNAKEFNPRSF)” was tested, and the “DMS-derived PSSM value (averaged), position L2” value [7] was 0.

With “KSTLNPNAKEFNPRSF F11W (KSTLNPNAKEWNPRSF)” the “DMS-derived PSSM value, position F11” value [6] was 0.203.

“TLNPNAKEFNPRSF(averaged) N5M (TLNPMAKEFNPRSF)” was tested, and the “DMS-derived PSSM value (averaged), position N5” value [8] was 0.3686.

For KSTLNPNAKEFNPRSF K9Q (KSTLNPNAQEFNPRSF), the “DMS-derived PSSM value, position K9” value [9] was 0.02634.

In the case of “KSTLNPNAKEFNPRSF F16Q (KSTLNPNAKEFNPRSQ)”, the “DMS-derived PSSM value, position F16” value [6] was 0.002875.

With TLNPNAKEFNPRSFSQ A6I (TLNPNIKEFNPRSFSQ) the “DMS-derived PSSM value, position A6” value [2] was 0.03549.

With “TLNPNAKEFNPRSF(averaged) F9E (TLNPNAKEENPRSF)” the “DMS-derived PSSM value (averaged), position F9” value [10] was 0.02703.

In the case of “TLNPNAKEFNPRSF(averaged) F9I (TLNPNAKEINPRSF)”, the “DMS-derived PSSM value (averaged), position F9” value [10] was 0.

“TLNPNAKEFNPRSFSQ S15A (TLNPNAKEFNPRSFAQ)” was tested, and the “DMS-derived PSSM value, position S15” value [1] was 0.02541.

In the case of “TLNPNAKEFNPRSF(averaged) T1K (KLNPNAKEFNPRSF)”, the “DMS-derived PSSM value (averaged), position T1” value [10] was 0.01914.

For TLNPNAKEFNPRSFSQ A6T (TLNPNTKEFNPRSFSQ), the “DMS-derived PSSM value, position A6” value [2] was 0.2659.

For “KSTLNPNAKEFNPRSF P13L (KSTLNPNAKEFNLRSF)”, the “DMS-derived PSSM value, position P13” value [11] was 0.006424.

With “KSTLNPNAKEFNPRSF F11E (KSTLNPNAKEENPRSF)” the “DMS-derived PSSM value, position F11” value [6] was 0.

In the case of “TLNPNAKEFNPRSFSQ R12I (TLNPNAKEFNPISFSQ)”, the “DMS-derived PSSM value, position R12” value [4] was 0.04014.

For “TLNPNAKEFNPRSF(averaged) F9H (TLNPNAKEHNPRSF)”, the “DMS-derived PSSM value (averaged), position F9” value [10] was 0.

In the case of “TLNPNAKEFNPRSF(averaged) S13Q (TLNPNAKEFNPRQF)”, the “DMS-derived PSSM value (averaged), position S13” value [12] was 0.009251.

“TLNPNAKEFNPRSF(averaged) P11Y (TLNPNAKEFNYRSF)” was tested, and the “DMS-derived PSSM value (averaged), position P11” value [13] was 0.02499.

With “KSTLNPNAKEFNPRSF N12F (KSTLNPNAKEFFPRSF)” the “DMS-derived PSSM value, position N12” value [14] was 0.05323.

“TLNPNAKEFNPRSF(averaged) N5E (TLNPEAKEFNPRSF)” was tested, and the “DMS-derived PSSM value (averaged), position N5” value [8] was 0.01598.

In the case of “TLNPNAKEFNPRSF(averaged) E8A (TLNPNAKAFNPRSF)”, the “DMS-derived PSSM value (averaged), position E8” value (prey ATXN2, TLNPNAKEFNPRSF(averaged) over the two overlapping peptides, E = wild type) was 0.01267.

“TLNPNAKEFNPRSF(averaged) L2N (TNNPNAKEFNPRSF)” was tested, and the “DMS-derived PSSM value (averaged), position L2” value [7] was 0.

TLNPNAKEFNPRSFSQ T1R (RLNPNAKEFNPRSFSQ) was tested, and the “DMS-derived PSSM value, position T1” value [4] was 0.08249.

“TLNPNAKEFNPRSFSQ R12V (TLNPNAKEFNPVSFSQ)” was tested, and the “DMS-derived PSSM value, position R12” value [4] was 0.1384.

In the case of TLNPNAKEFNPRSFSQ F9R (TLNPNAKERNPRSFSQ), the “DMS-derived PSSM value, position F9” value [4] was 0.

TLNPNAKEFNPRSFSQ N5M (TLNPMAKEFNPRSFSQ) was tested, and the “DMS-derived PSSM value, position N5” value [15] was 0.7094.

TLNPNAKEFNPRSFSQ P4A (TLNANAKEFNPRSFSQ) was tested, and the “DMS-derived PSSM value, position P4” value [5] was 0.02051.

With KSTLNPNAKEFNPRSF S2M (KMTLNPNAKEFNPRSF) the “DMS-derived PSSM value, position S2” value [3] was 0.2211.

KSTLNPNAKEFNPRSF S2K (KKTLNPNAKEFNPRSF) was tested, and the “DMS-derived PSSM value, position S2” value [3] was 0.

With “TLNPNAKEFNPRSF(averaged) T1W (WLNPNAKEFNPRSF)” the “DMS-derived PSSM value (averaged), position T1” value [10] was 0.008583.

TLNPNAKEFNPRSFSQ N5E (TLNPEAKEFNPRSFSQ) was tested, and the “DMS-derived PSSM value, position N5” value [15] was 3.906e-5.

In the case of TLNPNAKEFNPRSFSQ E8H (TLNPNAKHFNPRSFSQ), the “DMS-derived PSSM value, position E8” value (prey ATXN2, peptide TLNPNAKEFNPRSFSQ, E = wild type) was 0.0374.

For “TLNPNAKEFNPRSFSQ S15K (TLNPNAKEFNPRSFKQ)”, the “DMS-derived PSSM value, position S15” value [1] was 0.007327.

“TLNPNAKEFNPRSF(averaged) N5L (TLNPLAKEFNPRSF)” was tested, and the “DMS-derived PSSM value (averaged), position N5” value [8] was 0.05209.

With “TLNPNAKEFNPRSF(averaged) N3K (TLKPNAKEFNPRSF)” the “DMS-derived PSSM value (averaged), position N3” value [8] was 0.

For “TLNPNAKEFNPRSFSQ N10E (TLNPNAKEFEPRSFSQ)”, the “DMS-derived PSSM value, position N10” value [15] was 0.00197.

With “TLNPNAKEFNPRSFSQ N10T (TLNPNAKEFTPRSFSQ)” the “DMS-derived PSSM value, position N10” value [15] was 0.03853.

For KSTLNPNAKEFNPRSF P6I (KSTLNINAKEFNPRSF), the “DMS-derived PSSM value, position P6” value [11] was 0.3229.

For “TLNPNAKEFNPRSF(averaged) F14R (TLNPNAKEFNPRSR)”, the “DMS-derived PSSM value (averaged), position F14” value [10] was 0.0001414.

“KSTLNPNAKEFNPRSF P13W (KSTLNPNAKEFNWRSF)” was tested, and the “DMS-derived PSSM value, position P13” value [11] was 0.01574.

For “TLNPNAKEFNPRSF(averaged) N10Y (TLNPNAKEFYPRSF)”, the “DMS-derived PSSM value (averaged), position N10” value [8] was 0.1006.

With TLNPNAKEFNPRSFSQ N3V (TLVPNAKEFNPRSFSQ) the “DMS-derived PSSM value, position N3” value [15] was 0.

TLNPNAKEFNPRSFSQ L2T (TTNPNAKEFNPRSFSQ) was tested, and the “DMS-derived PSSM value, position L2” value (prey ATXN2, peptide TLNPNAKEFNPRSFSQ, L = wild type) was 0.

With “KSTLNPNAKEFNPRSF E10A (KSTLNPNAKAFNPRSF)” the “DMS-derived PSSM value, position E10” value (prey ATXN2, peptide KSTLNPNAKEFNPRSF, E = wild type) was 0.002857.

For KSTLNPNAKEFNPRSF N7L (KSTLNPLAKEFNPRSF), the “DMS-derived PSSM value, position N7” value [14] was 0.04259.

KSTLNPNAKEFNPRSF K9I (KSTLNPNAIEFNPRSF) was tested, and the “DMS-derived PSSM value, position K9” value [9] was 0.4039.

For KSTLNPNAKEFNPRSF S2W (KWTLNPNAKEFNPRSF), the “DMS-derived PSSM value, position S2” value [3] was 0.0005784.

TLNPNAKEFNPRSFSQ T1Q (QLNPNAKEFNPRSFSQ) was tested, and the “DMS-derived PSSM value, position T1” value [4] was 0.00769.

“TLNPNAKEFNPRSF(averaged) S13E (TLNPNAKEFNPREF)” was tested, and the “DMS-derived PSSM value (averaged), position S13” value [12] was 0.01358.

In the case of “TLNPNAKEFNPRSF(averaged) L2M (TMNPNAKEFNPRSF)”, the “DMS-derived PSSM value (averaged), position L2” value [7] was 0.2157.

In the case of “TLNPNAKEFNPRSFSQ S15L (TLNPNAKEFNPRSFLQ)”, the “DMS-derived PSSM value, position S15” value [1] was 0.001672.

With KSTLNPNAKEFNPRSF A8T (KSTLNPNTKEFNPRSF) the “DMS-derived PSSM value, position A8” value [16] was 0.

For “KSTLNPNAKEFNPRSF F11D (KSTLNPNAKEDNPRSF)”, the “DMS-derived PSSM value, position F11” value [6] was 0.

In the case of “TLNPNAKEFNPRSF(averaged) F14V (TLNPNAKEFNPRSV)”, the “DMS-derived PSSM value (averaged), position F14” value [10] was 0.12.

With “TLNPNAKEFNPRSF(averaged) A6F (TLNPNFKEFNPRSF)” the “DMS-derived PSSM value (averaged), position A6” value (prey ATXN2, TLNPNAKEFNPRSF(averaged) over the two overlapping peptides, A = wild type) was 0.

In the case of “TLNPNAKEFNPRSF(averaged) P11V (TLNPNAKEFNVRSF)”, the “DMS-derived PSSM value (averaged), position P11” value [13] was 0.44.

With TLNPNAKEFNPRSFSQ P4G (TLNGNAKEFNPRSFSQ) the “DMS-derived PSSM value, position P4” value [5] was 0.0005247.

In the case of “TLNPNAKEFNPRSF(averaged) N10A (TLNPNAKEFAPRSF)”, the “DMS-derived PSSM value (averaged), position N10” value [8] was 0.08276.

KSTLNPNAKEFNPRSF A8I (KSTLNPNIKEFNPRSF) was tested, and the “DMS-derived PSSM value, position A8” value [16] was 0.

In the case of “TLNPNAKEFNPRSF(averaged) P11D (TLNPNAKEFNDRSF)”, the “DMS-derived PSSM value (averaged), position P11” value [13] was 0.002991.

KSTLNPNAKEFNPRSF S2Q (KQTLNPNAKEFNPRSF) was tested, and the “DMS-derived PSSM value, position S2” value [3] was 0.001157.

For “TLNPNAKEFNPRSF(averaged) P4H (TLNHNAKEFNPRSF)”, the “DMS-derived PSSM value (averaged), position P4” value [13] was 0.02342.

With “KSTLNPNAKEFNPRSF P13F (KSTLNPNAKEFNFRSF)” the “DMS-derived PSSM value, position P13” value [11] was 0.002959.

In the case of TLNPNAKEFNPRSFSQ K7L (TLNPNALEFNPRSFSQ), the “DMS-derived PSSM value, position K7” value (prey ATXN2, peptide TLNPNAKEFNPRSFSQ, K = wild type) was 0.0009142.
